{
  "source": "patent US7115629B2",
  "about": "“Carbamates derived from arylalkylamines” (Laboratorios S.A.L.V.A.T., S.A., priority 2000, dated 2006)",
  "key": {"[1]": {"target": "T1, human M3 receptors (Homo sapiens, UniProt P20309)", "T1 construct": "purchased Receptor Biology; host or cells: CHO-K1 cells transfected with the human receptor (membranes)", "T1 sequence (P20309 whole entry)": "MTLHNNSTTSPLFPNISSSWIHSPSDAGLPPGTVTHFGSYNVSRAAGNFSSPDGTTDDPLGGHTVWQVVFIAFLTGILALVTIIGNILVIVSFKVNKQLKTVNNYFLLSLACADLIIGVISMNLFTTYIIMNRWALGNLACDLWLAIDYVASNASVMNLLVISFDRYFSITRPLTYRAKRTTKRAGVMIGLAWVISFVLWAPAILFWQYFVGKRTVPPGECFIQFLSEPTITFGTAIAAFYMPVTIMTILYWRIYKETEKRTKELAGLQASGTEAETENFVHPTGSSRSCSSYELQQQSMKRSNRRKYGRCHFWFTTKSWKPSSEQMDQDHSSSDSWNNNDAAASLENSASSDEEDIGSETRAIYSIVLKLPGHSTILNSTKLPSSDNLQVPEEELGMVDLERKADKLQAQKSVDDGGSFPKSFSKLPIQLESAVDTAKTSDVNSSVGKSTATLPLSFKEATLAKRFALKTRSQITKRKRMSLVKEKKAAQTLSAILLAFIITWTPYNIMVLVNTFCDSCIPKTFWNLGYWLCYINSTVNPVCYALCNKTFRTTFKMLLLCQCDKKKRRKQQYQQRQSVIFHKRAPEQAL", "assay": "Binding test to cloned human M3 muscarinic receptor ([3H]-NMS displacement, CHO-K1 membranes)", "description": "(§1) Membranes from CHO—K1 cells transfected with human M2 or M3 receptors (Receptor Biology) were used. The summarised experimental procedure for both receptors was the following: membranes (15–20 μg) were incubated with [^3H]-NMS (0.3–0.5 nM) for 60 min at 25° C., in presence or absence of the antagonists. Incubation was carried out in 96 wells polystyrene microplates in a total incubation volume of 0.2 mL of PBS pH 7.4. Non specific binding was determined in parallel assays in presence of atropine (5 μM). Samples were filtered through type GF/C glass fibre, preincubated with PEI 0.3%. Filters were washed 3–4 times with 50 mM Tris-HCl, 0.9% NaCl, pH 7.4 at 4° C., and dried at 50° C. for 45 min. Filter bound radioactivity was quantified by liquid scintillation counting.\n(§2) For the calculation of the inhibition constant (Ki), displacement curves were analysed by non-linear regression (GraphPad Prism). Dissociation constant (KD) of [^3H]-NMS for each receptor was obtained through the saturation curves obtained in the same conditions as the experiments carried out with the antagonists."}, "[2]": {"target": "T2, human M2 receptors (Homo sapiens, UniProt P08172)", "T2 construct": "purchased Receptor Biology; host or cells: CHO-K1 cells transfected with the human receptor (membranes)", "T2 sequence (P08172 1-466)": "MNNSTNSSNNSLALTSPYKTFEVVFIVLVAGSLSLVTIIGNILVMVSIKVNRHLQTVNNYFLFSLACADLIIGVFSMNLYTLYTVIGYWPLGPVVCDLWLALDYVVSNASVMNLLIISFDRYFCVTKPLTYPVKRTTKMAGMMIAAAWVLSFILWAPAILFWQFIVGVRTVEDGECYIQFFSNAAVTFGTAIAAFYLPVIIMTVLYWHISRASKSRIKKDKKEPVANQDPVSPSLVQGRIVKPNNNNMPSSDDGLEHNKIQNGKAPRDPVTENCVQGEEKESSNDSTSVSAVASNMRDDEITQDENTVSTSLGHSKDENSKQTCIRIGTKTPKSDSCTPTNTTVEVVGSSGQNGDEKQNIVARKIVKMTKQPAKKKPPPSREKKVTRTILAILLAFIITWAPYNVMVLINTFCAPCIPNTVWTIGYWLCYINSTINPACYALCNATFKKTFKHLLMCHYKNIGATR", "assay": "Binding test to cloned human M2 muscarinic receptor ([3H]-NMS displacement, CHO-K1 membranes), reported as M2/M3 ratio", "settings": "value greater than 1 indicates selectivity for the M3 receptor", "description": "as §1, §2"}, "[3]": {"settings": "membranes of CHO-K1 cells transfected with human M3, [3H]-NMS, mean of two independent experiments in duplicate, read-out: M3 (human M3 antagonist activity, binding affinity constant Ki)"}},
  "note": "Structures can show the parent of a compound that is named as a salt. Where two headings read alike, the source gives them in different places.",
  "data": [
    {"compound": "O=C(OC1CN2CCC1CC2)N(Cc1ccccc1)c1ccccc1", "note": "(stereo not drawn) [Example 1, 3-quinuclidyl N-benzyl-N-phenylcarbamate, hydrochloride]", "values": [
      {"measurement": "Ki", "setting": "[1]", "value": 0.45, "unit": "nM"},
      {"measurement": "M2/M3 (ratio between M2 and M3 receptor affinities)", "setting": "[2]", "value": 10}
    ]},
    {"compound": "O=C(O[C@H]1CN2CCC1CC2)N(Cc1ccccc1)c1ccccc1", "note": "[Example 2, (R)-3-quinuclidyl N-benzyl-N-phenylcarbamate, hydrochloride]", "values": [
      {"measurement": "Ki", "setting": "[1]", "value": 0.31, "unit": "nM"},
      {"measurement": "M2/M3 (ratio between M2 and M3 receptor affinities)", "setting": "[2]", "value": 5}
    ]},
    {"compound": "C[N+]12CCC(CC1)C(OC(=O)N(Cc1ccccc1)c1ccccc1)C2.[I-]", "note": "[Example 3, (R)-3-N-benzyl-N-phenylcarbamoyloxy)-1-methylquinuclidinium iodide]", "values": [
      {"measurement": "Ki", "setting": "[1]; [3]", "value": 2.6, "unit": "nM"},
      {"measurement": "M2/M3 (ratio between M2 and M3 receptor affinities)", "setting": "[2]", "value": 7}
    ]},
    {"compound": "O=C(OC1CN2CCC1CC2)N(Cc1ccccc1)c1ccccc1F", "note": "(stereo not drawn) [Example 5]", "values": [
      {"measurement": "Ki", "setting": "[1]; [3]", "value": 0.047, "unit": "nM"},
      {"measurement": "M2/M3 (ratio between M2 and M3 receptor affinities)", "setting": "[2]", "value": 47}
    ]},
    {"compound": "O=C(OC1CN2CCC1CC2)N(Cc1ccccc1)c1cccc(Cl)c1", "note": "(stereo not drawn) [Example 6]", "values": [
      {"measurement": "Ki", "setting": "[1]; [3]", "value": 0.21, "unit": "nM"},
      {"measurement": "M2/M3 (ratio between M2 and M3 receptor affinities)", "setting": "[2]", "value": 87}
    ]},
    {"compound": "O=C(OC1CN2CCC1CC2)N(Cc1ccccc1)c1cccc(Br)c1", "note": "(stereo not drawn) [Example 7]", "values": [
      {"measurement": "Ki", "setting": "[1]; [3]", "value": 2.05, "unit": "nM"},
      {"measurement": "M2/M3 (ratio between M2 and M3 receptor affinities)", "setting": "[2]", "value": 19}
    ]},
    {"compound": "O=C(O[C@H]1CN2CCC1CC2)N(Cc1ccccc1)c1c(F)cccc1F", "note": "[Example 8]", "values": [
      {"measurement": "Ki", "setting": "[1]; [3]", "value": 0.2, "unit": "nM"},
      {"measurement": "M2/M3 (ratio between M2 and M3 receptor affinities)", "setting": "[2]", "value": 11}
    ]},
    {"compound": "O=C(OC1CN2CCC1CC2)N(Cc1ccccc1)c1ccc(F)c(F)c1", "note": "(stereo not drawn) [Example 9]", "values": [
      {"measurement": "Ki", "setting": "[1]; [3]", "value": 19.6, "unit": "nM"},
      {"measurement": "M2/M3 (ratio between M2 and M3 receptor affinities)", "setting": "[2]", "value": 9}
    ]},
    {"compound": "Cc1cccc(N(Cc2ccccc2)C(=O)OC2CN3CCC2CC3)c1", "note": "(stereo not drawn) [Example 10]", "values": [
      {"measurement": "Ki", "setting": "[1]; [3]", "value": 0.14, "unit": "nM"},
      {"measurement": "M2/M3 (ratio between M2 and M3 receptor affinities)", "setting": "[2]", "value": 44}
    ]},
    {"compound": "Cc1cccc(C)c1N(Cc1ccccc1)C(=O)OC1CN2CCC1CC2", "note": "(stereo not drawn) [Example 11]", "values": [
      {"measurement": "Ki", "setting": "[1]; [3]", "value": 6.12, "unit": "nM"},
      {"measurement": "M2/M3 (ratio between M2 and M3 receptor affinities)", "setting": "[2]", "value": 11}
    ]},
    {"compound": "O=C(OC1CN2CCC1CC2)N(Cc1ccccc1)c1ccc2c(c1)CCC2", "note": "(stereo not drawn) [Example 12]", "values": [
      {"measurement": "Ki", "setting": "[1]; [3]", "value": 30.7, "unit": "nM"},
      {"measurement": "M2/M3 (ratio between M2 and M3 receptor affinities)", "setting": "[2]", "value": 6}
    ]},
    {"compound": "N#Cc1ccc(N(Cc2ccccc2)C(=O)OC2CN3CCC2CC3)cc1", "note": "(stereo not drawn) [Example 13]", "values": [
      {"measurement": "Ki", "setting": "[1]; [3]", "value": 4.31, "unit": "nM"},
      {"measurement": "M2/M3 (ratio between M2 and M3 receptor affinities)", "setting": "[2]", "value": 17}
    ]},
    {"compound": "O=C(OC1CN2CCC1CC2)N(Cc1ccccc1)c1ccccc1O", "note": "(stereo not drawn) [Example 14]", "values": [
      {"measurement": "Ki", "setting": "[1]; [3]", "value": 0.31, "unit": "nM"},
      {"measurement": "M2/M3 (ratio between M2 and M3 receptor affinities)", "setting": "[2]", "value": 21}
    ]},
    {"compound": "Cc1ccc(F)c(N(Cc2ccccc2F)C(=O)OC2CN3CCC2CC3)c1", "note": "(stereo not drawn) [Example 15]", "values": [
      {"measurement": "Ki", "setting": "[1]; [3]", "value": 0.53, "unit": "nM"},
      {"measurement": "M2/M3 (ratio between M2 and M3 receptor affinities)", "setting": "[2]", "value": 21}
    ]},
    {"compound": "O=C(OC1CN2CCC1CC2)N(Cc1ccccc1Br)c1ccccc1", "note": "(stereo not drawn) [Example 16]", "values": [
      {"measurement": "Ki", "setting": "[1]; [3]", "value": 4.23, "unit": "nM"},
      {"measurement": "M2/M3 (ratio between M2 and M3 receptor affinities)", "setting": "[2]", "value": 13}
    ]},
    {"compound": "O=C(OC1CN2CCC1CC2)N(Cc1cccc(F)c1)c1cccc(F)c1", "note": "(stereo not drawn) [Example 17]", "values": [
      {"measurement": "Ki", "setting": "[1]; [3]", "value": 0.054, "unit": "nM"},
      {"measurement": "M2/M3 (ratio between M2 and M3 receptor affinities)", "setting": "[2]", "value": 196}
    ]},
    {"compound": "O=C(OC1CN2CCC1CC2)N(Cc1ccc(F)cc1)c1cccc(F)c1F", "note": "(stereo not drawn) [Example 18]", "values": [
      {"measurement": "Ki", "setting": "[1]; [3]", "value": 0.92, "unit": "nM"},
      {"measurement": "M2/M3 (ratio between M2 and M3 receptor affinities)", "setting": "[2]", "value": 154}
    ]},
    {"compound": "Cc1ccc(F)c(N(Cc2ccc(Cl)cc2)C(=O)OC2CN3CCC2CC3)c1", "note": "(stereo not drawn) [Example 19]", "values": [
      {"measurement": "Ki", "setting": "[1]; [3]", "value": 1.2, "unit": "nM"},
      {"measurement": "M2/M3 (ratio between M2 and M3 receptor affinities)", "setting": "[2]", "value": 23}
    ]},
    {"compound": "O=C(OC1CN2CCC1CC2)N(Cc1cccc(F)c1F)c1cccc(Cl)c1", "note": "(stereo not drawn) [Example 20]", "values": [
      {"measurement": "Ki", "setting": "[1]; [3]", "value": 0.33, "unit": "nM"},
      {"measurement": "M2/M3 (ratio between M2 and M3 receptor affinities)", "setting": "[2]", "value": 149}
    ]},
    {"compound": "O=C(OC1CN2CCC1CC2)N(Cc1ccc(Cl)cc1Cl)c1ccc(F)cc1F", "note": "(stereo not drawn) [Example 21]", "values": [
      {"measurement": "Ki", "setting": "[1]; [3]", "value": 105, "unit": "nM"},
      {"measurement": "M2/M3 (ratio between M2 and M3 receptor affinities)", "setting": "[2]", "value": 5}
    ]},
    {"compound": "Cc1cccc(N(Cc2ccc(F)cc2F)C(=O)OC2CN3CCC2CC3)c1", "note": "(stereo not drawn) [Example 22]", "values": [
      {"measurement": "Ki", "setting": "[1]; [3]", "value": 0.51, "unit": "nM"},
      {"measurement": "M2/M3 (ratio between M2 and M3 receptor affinities)", "setting": "[2]", "value": 21}
    ]},
    {"compound": "COc1ccc(CN(C(=O)OC2CN3CCC2CC3)c2cccc(Cl)c2)c(F)c1", "note": "(stereo not drawn) [Example 23]", "values": [
      {"measurement": "Ki", "setting": "[1]; [3]", "value": 0.73, "unit": "nM"},
      {"measurement": "M2/M3 (ratio between M2 and M3 receptor affinities)", "setting": "[2]", "value": 118}
    ]},
    {"compound": "O=C(OC1CN2CCC1CC2)N(Cc1cc(F)ccc1F)c1ccccc1Cl", "note": "(stereo not drawn) [Example 24]", "values": [
      {"measurement": "Ki", "setting": "[1]; [3]", "value": 0.48, "unit": "nM"},
      {"measurement": "M2/M3 (ratio between M2 and M3 receptor affinities)", "setting": "[2]", "value": 33}
    ]},
    {"compound": "COc1ccc(F)c(CN(C(=O)OC2CN3CCC2CC3)c2ccccc2)c1", "note": "(stereo not drawn) [Example 25]", "values": [
      {"measurement": "Ki", "setting": "[1]; [3]", "value": 1.7, "unit": "nM"},
      {"measurement": "M2/M3 (ratio between M2 and M3 receptor affinities)", "setting": "[2]", "value": 19}
    ]}
  ]
}
